One block for each compound: values may come before it. Active and inactive are the calls of the source. How the calls were made is not given here.
Biological target: methionyl-tRNA synthetase (Trypanosoma brucei brucei)
Test: inhibition of trypanosomal methionyl-tRNA synthetase – biochemical, fluorescence polarization, dose response, round 1, orthogonal assay for T. brucei MetRS inhibitor project, late-stage follow-up (AID 743154)

IC50: 2.92 µM
SMILES: O=C(Cn1cc(C(=O)c2ccco2)c2ccccc21)Nc1cccc(C(F)(F)F)c1

IC50: > 39.5 µM (inactive)
SMILES: Cc1cccc(NC(=O)C2CC(=O)n3c(nc4ccccc43)N2)c1 (stereo unspecified)

IC50: inactive
SMILES: O=C(CSC1CC(=O)N(c2cccc(Cl)c2)C1=O)Nc1ccc(Br)cc1 (stereo unspecified)

IC50: > 119 µM (inactive)
SMILES: O=C(NCCc1nc2ccccc2[nH]1)c1c(F)cccc1F

IC50: 5.37 µM
SMILES: O=C(NCCc1nc2ccccc2[nH]1)c1ccc(Cl)cc1

IC50: > 39.5 µM (inactive)
SMILES: CCCCn1c(CCNC(=O)c2ccc(F)cc2)nc2ccccc21

IC50: 0.326 µM
SMILES: CNC(=S)N(CCc1ccccc1)C1CC(=O)N(c2ccc(Br)cc2)C1=O (stereo unspecified)

IC50: > 39.5 µM (inactive)
SMILES: Cn1c(CCNC(=O)c2ccc(Cl)cc2)nc2ccccc21

IC50: > 39.5 µM (inactive)
SMILES: CC(=O)N(CCc1ccccc1)C1CC(=O)N(c2ccc(Cl)cc2)C1=O (stereo unspecified)

IC50: > 119 µM (inactive)
SMILES: COc1ccc(CCN(C(=O)c2cccc(F)c2)C2CC(=O)N(c3ccc(Br)cc3)C2=O)cc1 (stereo unspecified)

IC50: > 119 µM (inactive)
SMILES: O=C1CC(NCCc2ccccc2)C(=O)N1c1ccc(Br)cc1 (stereo unspecified)

IC50: > 39.5 µM (inactive)
SMILES: Cc1cccc(C(=O)NCCc2nc3ccccc3n2CCOc2ccccc2)c1

IC50: > 119 µM (inactive)
SMILES: COc1ccc(NC(=O)C2CC(=O)n3c(nc4ccccc43)N2)cc1 (stereo unspecified)

IC50: 1.77 µM
SMILES: O=C(Nc1ccc(F)c(Cl)c1)C1CC(=O)n2c(nc3ccccc32)N1 (stereo unspecified)

IC50: 0.676 µM
SMILES: COc1ccc(CCN(C(=S)Nc2ccccc2)C2CC(=O)N(c3ccc(Cl)cc3)C2=O)cc1 (stereo unspecified)

IC50: > 13.2 µM (inactive)
SMILES: COc1cccc(NC(=O)C2CC(=O)n3c(nc4ccccc43)N2)c1 (stereo unspecified)

IC50: 0.666 µM
SMILES: O=C(CSc1nnc2c(n1)[nH]c1ccc(Br)cc12)NCc1ccccc1

IC50: > 39.5 µM (inactive)
SMILES: CC(=O)N(CCc1ccccc1)C1CC(=O)N(c2ccc(Br)cc2)C1=O (stereo unspecified)

The remaining lines, values behind:

SMILES: CCc1ccc2c(c1)c1nnc(SCC(=O)Nc3ccc4c(c3)OCO4)nc1n2C
IC50: > 119 µM (inactive)

SMILES: CC1Cc2ccccc2N1C(=O)Cn1cc(C(=O)C(=O)N2CCOCC2)c2ccccc21 (stereo unspecified)
IC50: > 119 µM (inactive)

SMILES: CCN(CC)C(=O)C(=O)c1cn(CC(=O)Nc2ccccc2OC)c2ccccc12
IC50: > 119 µM (inactive)

SMILES: O=C(Cn1cc(C(=O)C(=O)N2CCOCC2)c2ccccc21)NCC1CCCO1 (stereo unspecified)
IC50: > 119 µM (inactive)

SMILES: CCN(CCc1nc2ccc(C)cc2[nH]1)C(=O)c1ccc2ncccc2c1
IC50: > 119 µM (inactive)

SMILES: O=C(Cn1cc(C(=O)c2ccccc2)c2ccccc21)Nc1cccc(C(F)(F)F)c1
IC50: inactive

SMILES: O=C(Cn1cc(C(=O)C(=O)N2CCOCC2)c2ccccc21)NCc1ccccc1
IC50: > 119 µM (inactive)

SMILES: CCc1ccc2[nH]c3nc(SCC(=O)NCc4cccc(OC)c4)nnc3c2c1
IC50: > 39.5 µM (inactive)

SMILES: O=C(Cn1cc(C(=O)C(=O)N2CCCC2)c2ccccc21)Nc1ccccc1
IC50: > 119 µM (inactive)

SMILES: COc1ccccc1NC(=O)CSc1nnc2c(n1)[nH]c1ccc(C)cc12
IC50: inactive

SMILES: CCN(CC)C(=O)C(=O)c1cn(CC(=O)Nc2cccc(C(F)(F)F)c2)c2ccccc12
IC50: 0.167 µM

SMILES: Cc1cccc2[nH]c(C3CCCN(C(=O)c4cccc5cccnc45)C3)nc12 (stereo unspecified)
IC50: > 39.5 µM (inactive)

SMILES: Cc1cc2cc(C(=O)N3CCCC(c4nc5ccccc5[nH]4)C3)ccc2o1 (stereo unspecified)
IC50: > 39.5 µM (inactive)

SMILES: O=C(C(=O)N1CCOCC1)c1cn(CC(=O)N2CCCc3ccccc32)c2ccccc12
IC50: > 13.2 µM (inactive)

SMILES: COCCc1nc2ccc(C(=O)NCCc3nc4ccc(OC)cc4[nH]3)cc2o1
IC50: > 39.5 µM (inactive)

SMILES: Cc1ccc2[nH]c3nc(SCC(=O)Nc4ccc(C(F)(F)F)cc4)nnc3c2c1
IC50: > 119 µM (inactive)

SMILES: Cc1cccc2[nH]c(CCN(C)C(=O)c3cccc(C4CCNC4)c3)nc12 (stereo unspecified)
IC50: > 119 µM (inactive)

SMILES: O=C(Cn1cc(C(=O)C2CC2)c2ccccc21)Nc1cccc(C(F)(F)F)c1
IC50: > 39.5 µM (inactive)

SMILES: Cc1ccc(C(=O)NCCc2nc3ccccc3[nH]2)cc1C
IC50: > 13.2 µM (inactive)

SMILES: CC(=O)c1cn(CC(=O)Nc2cccc(C(F)(F)F)c2)c2ccccc12
IC50: > 39.5 µM (inactive)

SMILES: CCN(CC)C(=O)C(=O)c1cn(CC(=O)N2CCCc3ccccc32)c2ccccc12
IC50: > 119 µM (inactive)

SMILES: O=C(Cn1cc(C(=O)COc2ccccc2)c2ccccc21)Nc1cccc(C(F)(F)F)c1
IC50: > 39.5 µM (inactive)

SMILES: O=C(NCCc1nc2ccccc2[nH]1)c1ccc(Cl)cc1Cl
IC50: 1.35 µM

SMILES: CCN(CC)C(=O)C(=O)c1cn(CC(=O)N(CC)c2ccccc2)c2ccccc12
IC50: > 39.5 µM (inactive)

SMILES: CCC(=O)c1cn(CC(=O)Nc2cccc(C(F)(F)F)c2)c2ccccc12
IC50: > 39.5 µM (inactive)

SMILES: Cc1ccc(C(=O)NCCc2nc3ccccc3[nH]2)cc1[N+](=O)[O-]
IC50: 3.55 µM

SMILES: COc1ccccc1NC(=O)Cn1cc(C(=O)C(=O)N2CCOCC2)c2ccccc21
IC50: > 119 µM (inactive)

SMILES: CC(C)c1nc2ccc(C(=O)N(C)CCc3nc4ccc(F)cc4[nH]3)cc2o1
IC50: > 119 µM (inactive)

SMILES: CCN(C(=O)Cn1cc(C(=O)C(=O)N2CCOCC2)c2ccccc21)c1ccccc1
IC50: > 119 µM (inactive)

SMILES: Cc1ccc(CNC(=O)CSc2nnc3c(n2)[nH]c2ccc(C)cc23)cc1
IC50: inactive

SMILES: O=C(NCCc1nc2ccccc2[nH]1)c1ccc(Cl)c(Cl)c1
IC50: 0.901 µM

SMILES: COc1ccc(NC(=O)CSc2nnc3c4cc(C)ccc4n(C)c3n2)cc1
IC50: > 119 µM (inactive)

SMILES: CCN(CC)C(=O)C(=O)c1cn(CC(=O)Nc2cccc(OC)c2)c2ccccc12
IC50: 3.5 µM
